Data published in patent US11548900B2, “Oxazino-quinazoline and oxazino-quinoline type compound, preparation method and uses thereof” (BEIJING SCITECH-MQ PHARMACEUTICALS LIMITED, priority 2018, dated 2023).

Assays:
BT474 cells = test: Inhibition of cell proliferation, BT474 (CCK-8, 72 h); type: cell-based; conditions: Homo sapiens, BT-474, 72 h incubation
Experimental: (§1) The assay for the inhibition of cell proliferation by small molecular compounds was carried out using the method as follows:
(§2) 1. 600 μL pancreatin was added to a T75 cell culture flask, which was digested in a 37° C. incubator for about 1 min before 5 mL of DMEM complete culture solution was added, blew evenly, transferred to a 15 mL centrifuge tube, and centrifuged at 1000 rpm for 4 min;
(§3) 2. The supernatant was removed and 5 mL DMEM complete culture solution was added, blew evenly, and 10 μL cell suspension was taken and mixed with 10 μL 0.4% Trypan Blue, and counted using a cell counter;
(§4) 3. BT474 and HCC827 cell lines were seeded in 96-well plates at a cell density of 10,000 and 3000 cells/well/80 μL, respectively, and cultured overnight. Only sterile water was added to the 36 wells on the periphery of the 96-well plate without adding cells, and only the 60 wells in the center of the 96-well plate were used for cell assays and controls;
(§5) 4. Dilution of compounds: the compounds were diluted with a 3-fold dilution to make 10 concentrations in total with an initial concentration of 10 mM;
(§6) 5. 20 μL of different compounds with different concentrations were added to each well, and 20 μL of complete culture solution was added to the remaining wells. The final concentration of DMSO in each well is 0.25%;
(§7) 6. After 72 h of incubation, 10 μL CCK-8 reagent was added to each well, and incubated at 37° C. for 1-2 h; and the OD value was read at 450 nm;
(§8) 7. Cell survival rate (%)=[(As−Ab)/(Ac−Ab)]*100%
(§9) As: Assay well (medium containing cell, CCK-8, compound)
(§10) Ac: Control well (medium containing cell, CCK-8)
(§11) Ab: Blank well (CCK-8, medium without cell and compound)
(§12) 8. The value was imported into Graphpad Prism5 software for the calculation of IC50s (compound concentration at which 50% maximum survival rate is observed).

HER2 kinase = HER2 kinase (Homo sapiens (Human), UniProt P04626); test: Inhibition of HER2 kinase activity (ULight-labeled PolyGT substrate); type: biochemical; conditions: HER2 kinase 10 nM, ATP 10 μM, 2 hours
How it was run: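 HER2 kinase at 10 nM with 10 μM ATP and 100 nM ULight-PolyGT, 5 min enzyme–compound preincubation, then 2 h reaction at room temperature in the dark. Compounds at 11 3-fold concentrations, 2.5 μM top to 0.042 nM, 1% DMSO, duplicates. TR-FRET 665/615 ratio; IC50 from inhibition versus DMSO and no-compound controls.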

HCC827 cells = test: Inhibition of cell proliferation, HCC827 (CCK-8, 72 h); type: cell-based; conditions: Homo sapiens, 72 h incubation
Experimental: as §1, §2, §3, §4, §5, §6, §7, §8, §9, §10, §11, §12

EGFR kinase = EGFR kinase (Homo sapiens (Human), UniProt P00533); test: Inhibition of EGFR kinase activity (ULight-labeled JAK-1 (Tyr1023) peptide substrate); type: biochemical; conditions: EGFR kinase 0.35 nM, ATP 150 μM, 2 hours
Experimental: The assay for the inhibition of EGFR and HER2 kinase activity by small molecular compounds was carried out using the method as follows:
1) Dilution of the compounds
In a 96-well plate a, the compounds were diluted with DMSO using a 3-fold gradient dilution to form 11 concentrations, the 12th concentration is pure DMSO (as a positive control); and in a new 96-well plate b the above solutions were diluted 25 times with ultrapure water (DMSO concentration is 4%).
2) Transferring the compounds to 384-well plate
The compound solutions diluted with ultrapure water in the 96-well plate b above was transferred to the corresponding wells of a 384-well plate in duplicate.
3) Addition of 4×kinase solution: 2.5 μl of the above 4× kinase solution was taken using multichannel pipette and added to the corresponding reaction wells of the 384-well plate, mixed well and pre-reacted at room temperature for 5 minutes.
4) Addition of 2×substrate/ATP mixed solution: 5 μl of the above 2×substrate/ATP mixed solution was taken using multichannel pipette and added to the corresponding reaction wells of the 384-well plate.
5) Negative control: negative control wells were set in the 384-well plate, and 2.5 μl 4×substrate, 2.5 μl 4×enzyme solution, 2.5 μl 1×Kinase Assay Buffer and 2.5 μl ultrapure water containing 4% DMSO were added to each well.
6) Mixed by centrifugation and kept at room temperature for 2 hours in the dark.
7) Termination of the enzymatic reaction:
5 μl of the above 4× stop solution was pipetted to the corresponding wells of the 384-well plate, centrifuged and mixed, and reacted at room temperature for 5 minutes.
5 μl of the above 4× detection solution was pipetted into the corresponding wells of the 384-well plate, centrifuged and mixed, and reacted at room temperature for 1 hour.
9) The 384-well plate was placed into a microplate reader and the signal was detected using the corresponding program.
10) IC50 analysis: Well reading value=10000*EU665 value/EU615 value Inhibition rate=(reading value of positive control well−reading value of experimental well)/(reading value of positive control well−reading value of negative control well)*100% Corresponding IC50s can be calculated by entering the drug concentrations and the corresponding inhibition rates into GraphPad Prism 5.
Conditions of experiment for screening EGFR kinase inhibitory molecules:
The final concentration of EGFR kinase in the reaction system is 0.35 nM, and the final concentration of ATP is 150 μM, the final concentration of substrate ULight™-labeled JAK-1 (Tyr1023) Peptide is 100 nM, and the enzymatic reaction time is 2 hours.
The maximum final concentration of the compound in the reaction system is 2.5 μM, 11 concentrations were made with a 3-fold gradient dilution, and the minimal final concentration is 0.042 nM. The final concentration of DMSO is 1%.

Sequence of EGFR kinase (P00533 25-1210): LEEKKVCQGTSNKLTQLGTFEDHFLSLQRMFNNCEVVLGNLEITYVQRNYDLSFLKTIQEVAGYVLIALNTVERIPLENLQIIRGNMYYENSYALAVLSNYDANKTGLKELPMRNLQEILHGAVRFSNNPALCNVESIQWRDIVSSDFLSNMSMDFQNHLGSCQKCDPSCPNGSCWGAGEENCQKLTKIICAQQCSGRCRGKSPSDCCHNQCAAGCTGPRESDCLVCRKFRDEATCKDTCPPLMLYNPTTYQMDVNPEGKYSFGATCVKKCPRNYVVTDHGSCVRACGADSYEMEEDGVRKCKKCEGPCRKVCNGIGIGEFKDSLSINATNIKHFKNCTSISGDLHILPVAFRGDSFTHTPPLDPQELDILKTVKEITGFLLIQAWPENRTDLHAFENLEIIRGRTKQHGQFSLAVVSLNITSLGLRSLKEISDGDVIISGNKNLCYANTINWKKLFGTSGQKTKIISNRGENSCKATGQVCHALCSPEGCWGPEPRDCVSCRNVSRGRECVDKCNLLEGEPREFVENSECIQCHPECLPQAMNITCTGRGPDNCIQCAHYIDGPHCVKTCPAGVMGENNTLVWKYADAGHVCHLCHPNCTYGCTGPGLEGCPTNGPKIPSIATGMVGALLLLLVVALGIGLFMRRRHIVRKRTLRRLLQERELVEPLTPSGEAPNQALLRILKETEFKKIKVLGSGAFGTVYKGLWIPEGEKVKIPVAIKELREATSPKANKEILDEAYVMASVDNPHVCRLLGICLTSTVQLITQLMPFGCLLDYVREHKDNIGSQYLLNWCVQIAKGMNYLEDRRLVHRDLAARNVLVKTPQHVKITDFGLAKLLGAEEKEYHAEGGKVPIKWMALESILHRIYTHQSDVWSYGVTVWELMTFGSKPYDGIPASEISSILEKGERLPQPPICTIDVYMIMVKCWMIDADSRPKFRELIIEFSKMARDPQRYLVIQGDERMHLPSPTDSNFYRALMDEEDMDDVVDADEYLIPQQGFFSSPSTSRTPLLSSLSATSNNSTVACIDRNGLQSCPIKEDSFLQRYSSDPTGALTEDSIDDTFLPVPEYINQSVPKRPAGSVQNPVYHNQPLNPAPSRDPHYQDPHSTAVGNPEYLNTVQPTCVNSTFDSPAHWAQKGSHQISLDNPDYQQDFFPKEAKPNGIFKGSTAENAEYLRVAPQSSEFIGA
Sequence of HER2 kinase (P04626 23-1255): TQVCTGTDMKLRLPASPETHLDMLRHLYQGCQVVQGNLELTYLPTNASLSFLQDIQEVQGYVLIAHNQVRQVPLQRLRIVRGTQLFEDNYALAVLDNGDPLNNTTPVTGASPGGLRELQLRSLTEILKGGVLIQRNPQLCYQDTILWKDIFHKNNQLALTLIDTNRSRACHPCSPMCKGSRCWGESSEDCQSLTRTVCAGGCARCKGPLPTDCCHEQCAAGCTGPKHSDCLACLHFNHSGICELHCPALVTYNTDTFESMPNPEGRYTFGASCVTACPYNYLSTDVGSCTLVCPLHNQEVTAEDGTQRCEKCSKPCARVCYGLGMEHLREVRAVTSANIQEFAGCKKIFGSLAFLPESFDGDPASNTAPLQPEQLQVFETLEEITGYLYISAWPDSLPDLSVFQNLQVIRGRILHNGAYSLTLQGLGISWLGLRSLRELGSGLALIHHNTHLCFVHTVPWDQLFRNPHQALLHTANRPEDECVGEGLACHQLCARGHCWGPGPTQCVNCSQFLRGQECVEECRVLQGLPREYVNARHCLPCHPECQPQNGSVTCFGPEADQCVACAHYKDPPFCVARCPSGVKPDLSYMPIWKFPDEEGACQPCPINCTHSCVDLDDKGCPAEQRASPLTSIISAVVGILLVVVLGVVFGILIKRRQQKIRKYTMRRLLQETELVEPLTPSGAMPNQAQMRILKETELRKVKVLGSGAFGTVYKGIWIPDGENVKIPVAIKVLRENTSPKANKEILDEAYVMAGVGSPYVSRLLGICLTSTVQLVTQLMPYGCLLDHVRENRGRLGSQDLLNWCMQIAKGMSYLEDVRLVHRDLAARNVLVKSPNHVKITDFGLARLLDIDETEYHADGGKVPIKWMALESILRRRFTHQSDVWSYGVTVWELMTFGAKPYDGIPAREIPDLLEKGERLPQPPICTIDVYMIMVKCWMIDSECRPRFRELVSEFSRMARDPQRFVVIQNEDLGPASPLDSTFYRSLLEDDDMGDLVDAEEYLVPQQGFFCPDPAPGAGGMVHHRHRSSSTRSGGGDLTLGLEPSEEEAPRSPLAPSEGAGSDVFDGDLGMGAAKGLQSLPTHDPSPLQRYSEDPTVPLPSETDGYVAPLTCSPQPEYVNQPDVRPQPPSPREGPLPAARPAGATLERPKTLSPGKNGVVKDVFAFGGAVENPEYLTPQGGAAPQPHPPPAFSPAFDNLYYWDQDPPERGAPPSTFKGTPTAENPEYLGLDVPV

## CN(C)C/C=C/C(=O)N1CCOc2c1ccc1ncnc(Nc3ccc(Oc4ccccc4)c(F)c3)c21 [Example 58, (E)-4-(dimethylamino)-1-(10-((3-fluoro-4-phenoxyphenyl)amino)-2,3-dihydro-4H-[1,4]oxazino[2,3-f]quinazolin-4-yl)but-2-en-1-one]
BT474 cells
  IC50: ≤ 50 nM
HER2 kinase
  IC50: ≤ 50 nM
HCC827 cells
  IC50: 50 to 500 nM

## CN(C)C/C=C/C(=O)N1CCOc2c1ccc1ncnc(Nc3ccc(OCc4ccccc4)cc3)c21 [Example 78, (E)-1-(10-((4-(benzyloxy)phenyl)amino)-2,3-dihydro-4H-[1,4]oxazino[2,3-f]quinazolin-4-yl)-4-(dimethylamino)but-2-en-1-one]
BT474 cells
  IC50: ≤ 50 nM
HER2 kinase
  IC50: ≤ 50 nM
HCC827 cells
  IC50: 500 to 5000 nM

## CN(C)C/C=C/C(=O)N1CCOc2c1ccc1ncnc(Nc3ccc(OCc4ccccc4F)cc3)c21 [Example 79, (E)-4-(dimethylamino)-1-(10-((4-((2-fluorobenzyl)oxy)phenyl)amino)-2,3-dihydro-4H-[1,4]oxazino[2,3-f]quinazolin-4-yl)but-2-en-1-one]
BT474 cells
  IC50: ≤ 50 nM
HER2 kinase
  IC50: ≤ 50 nM
HCC827 cells
  IC50: 500 to 5000 nM

## CN(C)C/C=C/C(=O)N1CCOc2c1ccc1ncnc(Nc3ccc(OCc4ccccc4Cl)cc3)c21 [Example 80, (E)-4-(dimethylamino)-1-(10-((4-((2-chlorobenzyl)oxy)phenyl)amino)-2,3-dihydro-4H-[1,4]oxazino[2,3-f]quinazolin-4-yl)but-2-en-1-one]
BT474 cells
  IC50: ≤ 50 nM
HER2 kinase
  IC50: ≤ 50 nM
HCC827 cells
  IC50: 500 to 5000 nM

## Cc1ccccc1COc1ccc(Nc2ncnc3ccc4c(c23)OCCN4C(=O)/C=C/CN(C)C)cc1 [Example 81, (E)-4-(dimethylamino)-1-(10-((4-((2-methylbenzyl)oxy)phenyl)amino)-2,3-dihydro-4H-[1,4]oxazino[2,3-f]quinazolin-4-yl)but-2-en-1-one]
BT474 cells
  IC50: ≤ 50 nM
HER2 kinase
  IC50: ≤ 50 nM
HCC827 cells
  IC50: 500 to 5000 nM

## COc1ccccc1COc1ccc(Nc2ncnc3ccc4c(c23)OCCN4C(=O)/C=C/CN(C)C)cc1 [Example 82, (E)-4-(dimethylamino)-1-(10-((4-((2-methoxybenzyl)oxy)phenyl)amino)-2,3-dihydro-4H-[1,4]oxazino[2,3-f]quinazolin-4-yl)but-2-en-1-one]
BT474 cells
  IC50: ≤ 50 nM
HER2 kinase
  IC50: ≤ 50 nM
HCC827 cells
  IC50: 500 to 5000 nM

## Cc1cccc(COc2ccc(Nc3ncnc4ccc5c(c34)OCCN5C(=O)/C=C/CN(C)C)cc2)c1 [Example 84, (E)-4-(dimethylamino)-1-(10-((4-((3-methylbenzyl)oxy)phenyl)amino)-2,3-dihydro-4H-[1,4]oxazino[2,3-f]quinazolin-4-yl)but-2-en-1-one]
BT474 cells
  IC50: ≤ 50 nM
HER2 kinase
  IC50: ≤ 50 nM
HCC827 cells
  IC50: 50 to 500 nM

## CN(C)C/C=C/C(=O)N1CCOc2c1ccc1ncnc(Nc3ccc(OCc4cccc(C#N)c4)cc3)c21 [Example 85, (E)-4-(dimethylamino)-1-(10-((4-((3-cyanobenzyl)oxy)phenyl)amino)-2,3-dihydro-4H-[1,4]oxazino[2,3-f]quinazolin-4-yl)but-2-en-1-one]
BT474 cells
  IC50: ≤ 50 nM
HER2 kinase
  IC50: ≤ 50 nM
HCC827 cells
  IC50: 500 to 5000 nM

## O=C(/C=C/CNC1CC1)N1CCOc2c1ccc1ncnc(Nc3ccc(OCc4ccccn4)c(Cl)c3)c21 [Example 101, (E)-1-(10-((3-chloro-4-(pyridin-2-ylmethoxy)phenyl)amino)-2,3-dihydro-4H-[1,4]oxazino[2,3-f]quinazolin-4-yl)-4-(cyclopropylamino)but-2-en-1-one]
HER2 kinase
  IC50: 50 to 500 nM
HCC827 cells
  IC50: 500 to 5000 nM

## CCN(CC)C/C=C/C(=O)N1CCOc2c1ccc1ncnc(Nc3ccc(Oc4ccn5ncnc5c4)c(Cl)c3)c21 [Example 131, (E)-1-(10-((4-([1,2,4]triazolo[1,5-a]pyridin-7-yloxy)-3-chlorophenyl)amino)-2,3-dihydro-4H-[1,4]oxazino[2,3-f]quinazolin-4-yl)-4-(diethylamino)but-2-en-1-one]
BT474 cells
  IC50: ≤ 50 nM
EGFR kinase
  IC50: 50 to 500 nM
HER2 kinase
  IC50: ≤ 50 nM

## Cc1cc(Nc2ncnc3ccc4c(c23)OCCN4C(=O)/C=C/CN2CCN(C)CC2)ccc1Oc1ccn2ncnc2c1 [Example 132, (E)-1-(10-((4-([1,2,4]triazolo[1,5-a]pyridin-7-yloxy)-3-methylphenyl)amino)-2,3-dihydro-4H-[1,4]oxazino[2,3-f]quinazolin-4-yl)-4-(4-methylpiperazin-1-yl)but-2-en-1-one]
BT474 cells
  IC50: ≤ 50 nM
EGFR kinase
  IC50: 50 to 500 nM
HER2 kinase
  IC50: ≤ 50 nM

## Cc1cc(Nc2ncnc3ccc4c(c23)OCCN4C(=O)/C=C/CN(C)C(C)C)ccc1Oc1ccn2ncnc2c1 [Example 133, (E)-1-(10-((4-([1,2,4]triazolo[1,5-a]pyridin-7-yloxy)-3-methylphenyl)amino)-2,3-dihydro-4H-[1,4]oxazino[2,3-f]quinazolin-4-yl)-4-(isopropyl(methyl)amino)but-2-en-1-one]
BT474 cells
  IC50: ≤ 50 nM
EGFR kinase
  IC50: 500 to 5000 nM
HER2 kinase
  IC50: ≤ 50 nM

## Cc1cc(Nc2ncnc3ccc4c(c23)OCCN4C(=O)/C=C/CN2CCCCC2)ccc1Oc1ccn2ncnc2c1 [Example 134, (E)-1-(10-((4-([1,2,4]triazolo[1,5-a]pyridin-7-yloxy)-3-methylphenyl)amino)-2,3-dihydro-4H-[1,4]oxazino[2,3-f]quinazolin-4-yl)-4-(piperidin-1-yl)but-2-en-1-one]
BT474 cells
  IC50: ≤ 50 nM
EGFR kinase
  IC50: 50 to 500 nM
HER2 kinase
  IC50: ≤ 50 nM

## Cc1cc(Nc2ncnc3ccc4c(c23)OCCN4C(=O)/C=C/CN(C)C2CCC2)ccc1Oc1ccn2ncnc2c1 [Example 135, (E)-1-(10-((4-([1,2,4]triazolo[1,5-a]pyridin-7-yloxy)-3-methylphenyl)amino)-2,3-dihydro-4H-[1,4]oxazino[2,3-f]quinazolin-4-yl)-4-(cyclobutyl(methyl)amino)but-2-en-1-one]
BT474 cells
  IC50: ≤ 50 nM
EGFR kinase
  IC50: 50 to 500 nM
HER2 kinase
  IC50: ≤ 50 nM

## COCCN(C)C/C=C/C(=O)N1CCOc2c1ccc1ncnc(Nc3ccc(Oc4ccn5ncnc5c4)c(C)c3)c21 [Example 136, (E)-1-(10-((4-([1,2,4]triazolo[1,5-a]pyridin-7-yloxy)-3-methylphenyl)amino)-2,3-dihydro-4H-[1,4]oxazino[2,3-f]quinazolin-4-yl)-4-((2-methoxyethyl)(methyl)amino)but-2-en-1-one]
BT474 cells
  IC50: ≤ 50 nM
EGFR kinase
  IC50: 50 to 500 nM
HER2 kinase
  IC50: ≤ 50 nM

## CCN(CC)C/C=C/C(=O)N1CCOc2c1ccc1ncnc(Nc3ccc(Oc4ccn5ncnc5c4)c(C)c3)c21 [Example 137, (E)-1-(10-((4-([1,2,4]triazolo[1,5-a]pyridin-7-yloxy)-3-methylphenyl)amino)-2,3-dihydro-4H-[1,4]oxazino[2,3-f]quinazolin-4-yl)-4-(diethylamino)but-2-en-1-one]
BT474 cells
  IC50: ≤ 50 nM
EGFR kinase
  IC50: 500 to 5000 nM
HER2 kinase
  IC50: ≤ 50 nM
